PubChem BioAssay AID1963434 (Molecular Pharmacology Branch, DTP, NCI, 2024)

Tested on: 755483-174-R-J1-PDC complex spheroid growth, percent test/control
Experiment: Anticancer human tumor 755483-174-R-J1-PDC patient-derived rhabdomyosarcoma cell line growth inhibition [Asc]
Details: for IC50: curve of first compound; for viability, T/C: stronger effect = lower value
Method in brief: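 Complex solid-tumor spheroids incorporating human endothelial and mesenchymal stem cells received single agents or combinations over half-log dilution ranges anchored to clinical Cmax.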

[1] = second compound 0.1 µM, first compound 0.0316 µM
[2] = second compound 0.1 µM, first compound 0.1 µM
[3] = second compound 0.1 µM, first compound 0.316 µM
[4] = second compound 0.1 µM, first compound 1 µM
[5] = second compound 0.316 µM, first compound 0.0316 µM
[6] = second compound 0.316 µM, first compound 0.1 µM
[7] = second compound 0.316 µM, first compound 0.316 µM
[8] = second compound 0.316 µM, first compound 1 µM
[9] = second compound 1 µM, first compound 0.0316 µM
[10] = second compound 1 µM, first compound 0.1 µM
[11] = second compound 1 µM, first compound 0.316 µM
[12] = second compound 1 µM, first compound 1 µM
[13] = second compound 3.16 µM, first compound 0.0316 µM
[14] = second compound 3.16 µM, first compound 0.1 µM
[15] = second compound 3.16 µM, first compound 0.316 µM
[16] = second compound 3.16 µM, first compound 1 µM
[17] = second compound 10 µM, first compound 0.0316 µM
[18] = second compound 10 µM, first compound 0.1 µM
[19] = second compound 10 µM, first compound 0.316 µM
[20] = second compound 10 µM, first compound 1 µM
[21] = second compound 0.1 µM, first compound 0.00316 µM
[22] = second compound 0.1 µM, first compound 0.01 µM
[23] = second compound 0.316 µM, first compound 0.00316 µM
[24] = second compound 0.316 µM, first compound 0.01 µM
[25] = second compound 1 µM, first compound 0.00316 µM
[26] = second compound 1 µM, first compound 0.01 µM
[27] = second compound 3.16 µM, first compound 0.00316 µM
[28] = second compound 3.16 µM, first compound 0.01 µM
[29] = second compound 10 µM, first compound 0.00316 µM
[30] = second compound 10 µM, first compound 0.01 µM
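Further: spheroids exposed to compounds for seven days before readout.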

SMILES	IC50 (second compound 0.1 µM) [nM]	IC50 (second compound 0.316 µM) [nM]	IC50 (second compound 1 µM) [nM]	IC50 (second compound 3.16 µM) [nM]	IC50 (second compound 10 µM) [nM]	viability, T/C [1] [%]	viability, T/C [2] [%]	viability, T/C [3] [%]	viability, T/C [4] [%]	viability, T/C [5] [%]	viability, T/C [6] [%]	viability, T/C [7] [%]	viability, T/C [8] [%]	viability, T/C [9] [%]	viability, T/C [10] [%]	viability, T/C [11] [%]	viability, T/C [13] [%]	viability, T/C [14] [%]	viability, T/C [17] [%]	viability, T/C [18] [%]	other results
C=CC(=O)N1CCN(c2nc(=O)n(-c3c(C)ccnc3C(C)C)c3nc(-c4c(O)cccc4F)c(F)cc23)C(C)C1 (stereo not given) + Cc1c(S(C)(=O)=O)c(-c2cc(F)cc(N3CCN(c4ccc(NS(=O)(=O)c5ccc(NC(CCN6CCC(C(=O)OCCCP(=O)(O)O)CC6)CSc6ccccc6)c(S(=O)(=O)C(F)(F)F)c5)cc4)CC3)c2)c(-c2ccc(Cl)cc2)n1C(C)C	> 10000	5510	< 31.6	> 10000	< 31.6	79.5	46.7	58.4	72.9	45.4	64.7	44.5	57.1	47.2	47.4	54.8	52.4	46	35	34.6	viability, T/C (second compound 0.1 µM, first compound 3.16 µM): 62.3%; viability, T/C (second compound 0.1 µM, first compound 10 µM): 56.2%; viability, T/C (second compound 0.316 µM, first compound 3.16 µM): 53.2%; viability, T/C (second compound 0.316 µM, first compound 10 µM): 46.9%; viability, T/C [12]: 49%; viability, T/C (second compound 1 µM, first compound 3.16 µM): 49.3%; viability, T/C (second compound 1 µM, first compound 10 µM): 37.7%; viability, T/C [15]: 51.9%; viability, T/C [16]: 63.2%; viability, T/C (second compound 3.16 µM, first compound 3.16 µM): 48.3%; viability, T/C (second compound 3.16 µM, first compound 10 µM): 48.8%; viability, T/C [19]: 50.2%; viability, T/C [20]: 42.6%; viability, T/C (second compound 10 µM, first compound 3.16 µM): 32.8%; viability, T/C (second compound 10 µM, first compound 10 µM): 42.7%
COc1c(OCCCN2CCOCC2)ccc2c3n(c(=NC(=O)c4cnc(N)nc4)nc12)CCN3 + Cc1c(S(C)(=O)=O)c(-c2cc(F)cc(N3CCN(c4ccc(NS(=O)(=O)c5ccc(NC(CCN6CCC(C(=O)OCCCP(=O)(O)O)CC6)CSc6ccccc6)c(S(=O)(=O)C(F)(F)F)c5)cc4)CC3)c2)c(-c2ccc(Cl)cc2)n1C(C)C	< 3.16	< 3.16	< 3.16	< 3.16	< 3.16	33.2	15.8	6.56	4	31.9	13	5.57	2.62	18.6	17.4	5.22	20.2	8.47	19.1	12.1	viability, T/C [21]: 39.6%; viability, T/C [22]: 48%; viability, T/C [23]: 32.8%; viability, T/C [24]: 28.1%; viability, T/C [25]: 34.3%; viability, T/C [26]: 31.4%; viability, T/C [12]: 2.16%; viability, T/C [27]: 26.5%; viability, T/C [28]: 29.1%; viability, T/C [15]: 5.03%; viability, T/C [16]: 1.66%; viability, T/C [29]: 40.9%; viability, T/C [30]: 25.5%; viability, T/C [19]: 4.21%; viability, T/C [20]: 1.7%
NC1CCC(NC2CC2c2ccccc2)CC1 (stereo not given) + Cc1c(S(C)(=O)=O)c(-c2cc(F)cc(N3CCN(c4ccc(NS(=O)(=O)c5ccc(NC(CCN6CCC(C(=O)OCCCP(=O)(O)O)CC6)CSc6ccccc6)c(S(=O)(=O)C(F)(F)F)c5)cc4)CC3)c2)c(-c2ccc(Cl)cc2)n1C(C)C	< 0.316	< 0.316	< 0.316	< 0.316	< 0.316	33.7	37	–	–	35.9	30.5	–	–	31.1	39.5	–	24.9	35.4	24.5	27.6	viability, T/C (second compound 0.1 µM, first compound 0.000316 µM): 36.7%; viability, T/C (second compound 0.1 µM, first compound 0.001 µM): 31.1%; viability, T/C [21]: 37.3%; viability, T/C [22]: 37.3%; viability, T/C (second compound 0.316 µM, first compound 0.000316 µM): 39.7%; viability, T/C (second compound 0.316 µM, first compound 0.001 µM): 42.1%; viability, T/C [23]: 31.7%; viability, T/C [24]: 26.7%; viability, T/C (second compound 1 µM, first compound 0.000316 µM): 27.6%; viability, T/C (second compound 1 µM, first compound 0.001 µM): 19.3%; viability, T/C [25]: 31.9%; viability, T/C [26]: 31.5%; viability, T/C (second compound 3.16 µM, first compound 0.000316 µM): 25.2%; viability, T/C (second compound 3.16 µM, first compound 0.001 µM): 32.8%; viability, T/C [27]: 22.7%; viability, T/C [28]: 35.9%; viability, T/C (second compound 10 µM, first compound 0.000316 µM): 20.4%; viability, T/C (second compound 10 µM, first compound 0.001 µM): 20.4%; viability, T/C [29]: 21.2%; viability, T/C [30]: 20.6%
